{"source": "ChEMBL document CHEMBL1148572", "about": "“1-((S)-2-aminopropyl)-1H-indazol-6-ol: a potent peripherally acting 5-HT2 receptor agonist with ocular hypotensive activity” (J Med Chem, 2006)", "key": {"[1]": {"molecular_target": "T1, Cysteinyl leukotriene receptor 1 (Homo sapiens) (UniProt Q9Y271)", "T1 sequence (whole entry)": "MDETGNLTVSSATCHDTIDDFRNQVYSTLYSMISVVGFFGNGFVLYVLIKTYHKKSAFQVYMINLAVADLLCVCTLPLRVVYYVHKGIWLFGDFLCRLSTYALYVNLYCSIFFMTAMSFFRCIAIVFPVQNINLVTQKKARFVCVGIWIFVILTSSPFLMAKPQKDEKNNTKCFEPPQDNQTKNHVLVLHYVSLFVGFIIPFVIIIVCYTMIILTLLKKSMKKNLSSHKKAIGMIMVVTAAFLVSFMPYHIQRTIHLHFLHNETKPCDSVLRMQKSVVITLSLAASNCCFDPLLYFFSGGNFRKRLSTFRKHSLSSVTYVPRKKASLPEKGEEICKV", "assay": "Inhibition of leukotriene D4 at 10 uM"}, "[2]": {"molecular_target": "Leukotriene B4 receptor (Homo sapiens) (UniProt Q9NPC1+Q15722)", "sequence (Q15722 whole entry, looked up)": "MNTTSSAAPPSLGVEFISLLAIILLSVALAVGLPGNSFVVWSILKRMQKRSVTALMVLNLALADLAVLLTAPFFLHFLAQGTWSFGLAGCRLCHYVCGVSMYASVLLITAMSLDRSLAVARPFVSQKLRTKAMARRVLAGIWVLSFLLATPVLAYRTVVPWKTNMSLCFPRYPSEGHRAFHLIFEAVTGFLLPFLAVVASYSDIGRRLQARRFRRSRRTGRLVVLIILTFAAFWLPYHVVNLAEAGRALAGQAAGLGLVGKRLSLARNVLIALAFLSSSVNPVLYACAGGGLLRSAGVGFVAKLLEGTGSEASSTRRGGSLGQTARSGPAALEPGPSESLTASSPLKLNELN", "sequence (Q9NPC1 whole entry, looked up)": "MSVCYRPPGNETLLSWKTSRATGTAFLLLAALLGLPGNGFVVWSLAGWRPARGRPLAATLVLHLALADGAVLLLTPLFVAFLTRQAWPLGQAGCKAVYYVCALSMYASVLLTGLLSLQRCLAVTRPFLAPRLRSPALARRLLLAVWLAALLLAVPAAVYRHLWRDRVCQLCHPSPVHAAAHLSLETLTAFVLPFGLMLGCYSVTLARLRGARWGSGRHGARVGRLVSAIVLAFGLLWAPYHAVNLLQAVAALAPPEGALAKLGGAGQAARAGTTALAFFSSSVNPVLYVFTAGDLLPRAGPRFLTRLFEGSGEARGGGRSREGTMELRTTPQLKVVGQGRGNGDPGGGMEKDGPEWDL", "assay": "Inhibition of leukotriene B4 at 100 nM", "assay_type": "protein assay"}, "[3]": {"molecular_target": "T2, 5-hydroxytryptamine receptor 2C (Rattus norvegicus) (UniProt P08909)", "T2 sequence (whole entry)": "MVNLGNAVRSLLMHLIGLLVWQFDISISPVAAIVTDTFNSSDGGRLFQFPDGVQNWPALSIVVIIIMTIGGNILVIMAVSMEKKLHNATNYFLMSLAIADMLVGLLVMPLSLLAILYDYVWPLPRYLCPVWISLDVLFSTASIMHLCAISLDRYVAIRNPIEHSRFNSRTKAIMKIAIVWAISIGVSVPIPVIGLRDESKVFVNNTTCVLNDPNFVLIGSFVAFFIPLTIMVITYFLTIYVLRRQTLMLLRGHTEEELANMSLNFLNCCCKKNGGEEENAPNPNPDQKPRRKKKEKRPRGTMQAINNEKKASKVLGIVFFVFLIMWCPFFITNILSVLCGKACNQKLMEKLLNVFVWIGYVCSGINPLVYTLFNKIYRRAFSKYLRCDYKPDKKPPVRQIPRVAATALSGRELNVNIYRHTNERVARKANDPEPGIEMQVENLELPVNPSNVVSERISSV", "assay": "Activity against recombinant rat 5HT2C mediated intracellular calcium mobilization by FLIPR in SR3T3 cells"}, "[4]": {"molecular_target": "T3, Androgen receptor (Homo sapiens) (UniProt P10275)", "T3 sequence (whole entry)": "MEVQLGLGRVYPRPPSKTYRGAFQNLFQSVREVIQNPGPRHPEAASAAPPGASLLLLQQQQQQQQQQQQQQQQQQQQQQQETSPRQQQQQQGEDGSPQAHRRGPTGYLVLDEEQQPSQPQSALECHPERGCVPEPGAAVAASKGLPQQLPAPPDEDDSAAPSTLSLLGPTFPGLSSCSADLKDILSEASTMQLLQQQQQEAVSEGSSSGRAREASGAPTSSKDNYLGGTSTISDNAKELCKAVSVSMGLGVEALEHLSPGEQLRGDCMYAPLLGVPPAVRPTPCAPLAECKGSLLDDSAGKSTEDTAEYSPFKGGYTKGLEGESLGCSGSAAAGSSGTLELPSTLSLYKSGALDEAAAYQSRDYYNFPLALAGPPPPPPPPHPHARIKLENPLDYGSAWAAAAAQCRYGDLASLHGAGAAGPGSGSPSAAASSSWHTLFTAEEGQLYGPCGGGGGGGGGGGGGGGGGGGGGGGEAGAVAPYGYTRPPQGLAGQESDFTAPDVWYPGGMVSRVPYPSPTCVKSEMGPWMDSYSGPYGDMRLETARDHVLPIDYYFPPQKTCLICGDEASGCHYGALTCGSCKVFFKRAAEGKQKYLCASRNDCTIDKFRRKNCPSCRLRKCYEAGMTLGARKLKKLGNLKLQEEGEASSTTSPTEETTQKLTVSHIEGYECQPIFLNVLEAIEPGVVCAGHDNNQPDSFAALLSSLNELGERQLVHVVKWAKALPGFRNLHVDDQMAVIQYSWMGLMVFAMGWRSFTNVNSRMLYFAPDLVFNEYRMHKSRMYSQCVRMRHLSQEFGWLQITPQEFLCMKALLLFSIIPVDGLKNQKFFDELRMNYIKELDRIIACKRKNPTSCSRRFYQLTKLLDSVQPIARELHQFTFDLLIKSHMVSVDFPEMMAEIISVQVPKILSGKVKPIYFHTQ", "assay": "Inhibition of testosterone receptor at 1 nM"}, "[5]": {"molecular_target": "Epidermal growth factor receptor (Homo sapiens) (UniProt P00533)", "sequence (P00533 whole entry)": "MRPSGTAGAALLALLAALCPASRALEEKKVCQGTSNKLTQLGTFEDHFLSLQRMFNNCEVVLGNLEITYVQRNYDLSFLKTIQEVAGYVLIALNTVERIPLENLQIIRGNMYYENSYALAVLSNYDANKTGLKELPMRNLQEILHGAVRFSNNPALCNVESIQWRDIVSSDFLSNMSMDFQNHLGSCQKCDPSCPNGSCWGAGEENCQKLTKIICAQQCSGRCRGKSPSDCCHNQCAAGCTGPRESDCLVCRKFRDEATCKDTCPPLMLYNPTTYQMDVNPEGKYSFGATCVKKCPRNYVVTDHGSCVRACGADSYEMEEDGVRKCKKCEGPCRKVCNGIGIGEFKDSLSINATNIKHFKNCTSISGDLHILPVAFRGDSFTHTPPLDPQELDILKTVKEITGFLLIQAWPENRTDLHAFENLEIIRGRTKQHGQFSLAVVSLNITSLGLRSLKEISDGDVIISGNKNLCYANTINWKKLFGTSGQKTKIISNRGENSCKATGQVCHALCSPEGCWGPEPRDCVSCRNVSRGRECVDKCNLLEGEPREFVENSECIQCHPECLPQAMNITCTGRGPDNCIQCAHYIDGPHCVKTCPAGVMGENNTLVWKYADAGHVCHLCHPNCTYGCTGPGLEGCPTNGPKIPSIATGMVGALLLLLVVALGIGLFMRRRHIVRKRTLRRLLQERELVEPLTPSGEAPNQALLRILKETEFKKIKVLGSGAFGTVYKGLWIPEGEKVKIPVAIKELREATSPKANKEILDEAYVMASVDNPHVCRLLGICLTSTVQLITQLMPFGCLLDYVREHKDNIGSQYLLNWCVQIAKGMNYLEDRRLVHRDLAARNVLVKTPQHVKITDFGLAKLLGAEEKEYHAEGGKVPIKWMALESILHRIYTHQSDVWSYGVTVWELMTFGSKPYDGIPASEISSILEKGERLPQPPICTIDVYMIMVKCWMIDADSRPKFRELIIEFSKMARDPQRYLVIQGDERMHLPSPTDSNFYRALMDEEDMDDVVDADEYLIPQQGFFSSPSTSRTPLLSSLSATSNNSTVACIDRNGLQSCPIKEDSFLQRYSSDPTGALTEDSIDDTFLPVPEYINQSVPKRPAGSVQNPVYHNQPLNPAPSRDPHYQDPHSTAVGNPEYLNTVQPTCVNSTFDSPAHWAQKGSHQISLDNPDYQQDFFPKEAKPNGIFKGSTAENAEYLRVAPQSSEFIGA", "assay": "Inhibition of EGFR at 1 nM"}, "[6]": {"molecular_target": "T3, Androgen receptor (Homo sapiens)", "assay": "Inhibition of testosterone receptor at 100 nM"}, "[7]": {"molecular_target": "Glutamate [NMDA] receptor (Homo sapiens) (UniProt Q05586+Q12879+Q13224+O15399+O60391+Q14957+Q8TCU5)", "assay": "Inhibition of agonist site of NMDA receptor at 100 nM", "assay_type": "functional"}, "[8]": {"molecular_target": "T4, GABA-A receptor; benzodiazepine site (Homo sapiens) (UniProt P14867+P18507+P48169+Q99928+P34903+Q8N1C3+P47869+P31644+Q16445)", "assay": "Inhibition of central benzodiazepine site on GABAA receptor at 10 uM", "assay_type": "protein-complex assay"}, "[9]": {"molecular_target": "Epidermal growth factor receptor (Homo sapiens) (UniProt P00533)", "assay": "Inhibition of EGFR at 10 uM"}, "[10]": {"species": "Homo sapiens", "assay": "Inhibition of inositol triphosphate IP3 at 1 nM", "assay_type": "functional"}, "[11]": {"molecular_target": "T4, GABA-A receptor; benzodiazepine site (Homo sapiens)", "assay": "Inhibition of central benzodiazepine site on GABAA receptor at 100 nM", "assay_type": "protein-complex assay"}, "[12]": {"molecular_target": "T3, Androgen receptor (Homo sapiens)", "assay": "Inhibition of testosterone receptor at 10 uM"}, "[13]": {"molecular_target": "T5, monoamine oxidase A (MAO-A) (Rattus norvegicus, UniProt P21396)", "T5 sequence (P21396 whole entry)": "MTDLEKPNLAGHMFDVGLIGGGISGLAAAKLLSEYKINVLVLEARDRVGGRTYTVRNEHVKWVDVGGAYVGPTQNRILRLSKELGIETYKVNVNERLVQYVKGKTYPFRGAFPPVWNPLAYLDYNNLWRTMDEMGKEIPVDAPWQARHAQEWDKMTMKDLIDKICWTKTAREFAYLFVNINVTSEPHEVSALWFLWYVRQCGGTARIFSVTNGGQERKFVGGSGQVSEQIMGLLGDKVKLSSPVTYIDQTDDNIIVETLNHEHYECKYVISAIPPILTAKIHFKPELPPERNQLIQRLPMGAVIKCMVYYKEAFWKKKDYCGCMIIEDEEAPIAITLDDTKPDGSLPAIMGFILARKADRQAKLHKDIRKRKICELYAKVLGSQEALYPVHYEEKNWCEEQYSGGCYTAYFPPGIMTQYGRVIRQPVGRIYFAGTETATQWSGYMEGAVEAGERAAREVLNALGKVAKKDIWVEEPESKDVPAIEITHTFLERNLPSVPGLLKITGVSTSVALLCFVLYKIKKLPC", "assay": "Inhibition of monoamine oxidase A in rat brain at 10 uM", "assay_type": "tissue-based"}, "[14]": {"molecular_target": "Protein kinase C, PKC; classical/novel (Homo sapiens) (UniProt O94806+P17252+P05129+Q05655+P05771+Q02156+P24723+Q15139+Q04759)", "assay": "Inhibition of PDBu activated protein kinase C at 100 nM", "assay_type": "protein assay"}}}
{"smiles": "C[C@H](N)Cn1ncc2ccc(O)cc21", "values": [{"measurement": "inhibition", "setting": "[1]", "value": 0.07, "unit": "%"}, {"measurement": "inhibition", "setting": "[2]", "value": 15.8, "unit": "%"}, {"measurement": "Emax", "setting": "[3]", "value": 89, "unit": "%"}, {"measurement": "inhibition", "setting": "[4]", "value": 0.47, "unit": "%"}, {"measurement": "inhibition", "setting": "[5]", "value": 1.44, "unit": "%"}, {"measurement": "inhibition", "setting": "[6]", "value": 0.86, "unit": "%"}, {"measurement": "inhibition", "setting": "[7]", "value": 15.7, "unit": "%"}, {"measurement": "inhibition", "setting": "[8]", "value": 22.8, "unit": "%"}, {"measurement": "inhibition", "setting": "[9]", "value": -5.17, "unit": "%"}, {"measurement": "inhibition", "setting": "[10]", "value": 6.53, "unit": "%"}, {"measurement": "inhibition", "setting": "[11]", "value": 18.8, "unit": "%"}, {"measurement": "inhibition", "setting": "[12]", "value": 21.9, "unit": "%"}, {"measurement": "inhibition at 10 µM", "setting": "[13]", "value": 0.82, "unit": "%"}, {"measurement": "inhibition", "setting": "[14]", "value": 11.3, "unit": "%"}]}
